Results reported in patent US8735423B2, “Bicyclic compounds as α4β2 nicotinic acetylcholine receptor ligands” (priority 2009, dated 2014).

System: Male Sprague Dawley rats
Test: DRL-72s model of animal depression
Assay type: in vivo
Settings: rat
Protocol: The antidepressant properties of compounds of this invention were evaluated using a model of animal depression: the DRL-72s model. Male Sprague Dawley rats were used as experimental animals. Rats are trained to lever press for a 4″ access to 0.025 mL of water for each correct response during daily 60 minute sessions. All testing takes place on weekdays only. At the beginning of each session, the house light is illuminated and remains lit until the session ends. No other stimuli are presented during testing. After successful lever press training, rats are then required to respond under a DRL-24 second schedule, where only lever presses that are separated by 24 seconds are reinforced. Upon stable responding on a DRL-24 second schedule (5-10 sessions), rats are trained on a DRL-72 second schedule until responding stabilizes at approximately 15% efficiency (approx 25-35 sessions). Specifically, rats receive a reinforcer for each response that is emitted at least 72 seconds after the previous response (IRT). […] Efficiency is recorded as number of reinforced responses÷total number of responses. After stable baseline responding is achieved, defined as responding for 4 consecutive sessions with no more than 10% variability, animals begin drug testing. Animals receive drug no more than 1× per week.

In the case of `Cl.c1cncc(OCC2CC3CC3N2)c1` (stereo not shown) [Example 1, 3-(Pyridin-3-yloxymethyl)-2-azabicyclo[3.1.0]hexane hydrochloride], the “Dose mg/kg, p.o. (DRL-72s)” value was “≦10 mg/kg, p.o”.
